Data taken from US20010033841A1, “Modulating platelet function” (priority 1998, published 2001).

Assays:
[1] = system: SDF-1 induced platelet aggregation; experiment: Inhibition of SDF-1 induced platelet aggregation; type: cell-based, human
Method: (§1) Blood collection and platelet preparation. Human blood was collected from antecubital veins of healthy male or female, aspirin-free volunteers into syringes containing heparin (10 units/ml final concentration) for flow cytometry studies or sodium citrate (0.38% final concentration) for aggregation studies. Platelet rich plasma (PRP) was prepared by centrifugation of whole blood at 150 g for 15 minutes. Platelet poor plasma (PPP) was prepared by centrifugation of PRP at 1200 g for 15 minutes.
(§2) Aggregation studies. Experiments were performed using a Chrono-Log model 560 vs or 490-2D aggregometer (Havertown, Pa.). Aliquots of PRP (0.50 ml or 0.45 ml) with a platelet concentration of […] were incubated at 37° C. and stirred at 1000 rpm. Chemokines (PeproTech Inc., Rocky Hill, N.J., except SDF-1β, which was obtained from Genetics Institute, Boston, Mass.) were added and aggregation was measured as a percent change in optical density, with the instrument calibrated to yield 0% change in optical density for PRP and with the PPP 100% standard for change in optical density. Aggregation scale was set so that maximal aggregation gave 85-90% chart deflection. Inhibition experiments were done using CXCR4 mAb 12G5 (R&D, Minneapolis, Minn.), polyclonal anti-SDF-1 (R&D, Minneapolis, Minn.), pertussis toxin (Sigma, St. Louis, Mo.), wortmannin (Sigma), genestein (Sigma), and aspirin (Sigma). DMSO was used as vehicle for genestein and wortmannin and 1N NaOH was used as a vehicle for aspirin.

human platelets [2] = experiment: SDF-1 induced calcium flux in fura-2 loaded platelets; type: cell-based; details: SDF-1 50-100 nM, fura-2 340/380 ratio
Method: Calcium flux. Fura-2 loaded platelets were prepared from acid citrate dextrose anti-coagulated blood (Rink et al., J. Physiol. 393: 513-24, 1987). PRP was collected by centrifugation for 15 minutes at 200 g and 100 μM aspirin was added. Platelets were then loaded with fura-2 by incubating PRP with 2 μM acetoxymethyl ester of fura-2 (fura-2 AM; Molecular Probes, Inc., Eugene, Oreg.) for 45 minutes at 37° C. in the dark. PRP was then centrifuged at 1500 g for 10 minutes and the pellet washed and resuspended in a buffer containing 145 mM NaCl, 4 mM KCl, 1 mM NaH2PO4, 0.8 mM MgCl2, 1.8 mM CaCl2, 25 mM Hepes and 22 mM glucose. Changes in cytosolic free calcium were determined after addition of SDF-1 (500 or 1000 ng/ml) by monitoring the excitation fluorescence intensity emitted at 510 nm in response to sequential excitation at 340 nm and 380 nm using a Delta RAM (Random Access Monochromator) fluorimeter (Photon Technology International, Monmouth Junction, N.J.). The data are presented as the relative ratio of fluorescence at 340/380 nm.

[3] = system: resting T-cells, monocytes, B cell precursors, natural killer cells and CD34+ stem cells; details: Bleul et al. 1996; Campbell et al. 1998; cited from earlier work
human platelets [4] = experiment: Chemokine-induced platelet aggregation in platelet rich plasma (aggregometer); type: cell-based
Method: as §1, §2

Which “effect on SDF-1 induced platelet aggregation” value (“effect” for short) ([1]; aspirin 1 mM, FIG. 5A) does the source give for `CC(=O)Oc1ccccc1C(=O)O` [Aspirin, aspirin] here?
Its value is “inhibited SDF-1 induced secondary aggregation”.

Which “effect” value ([1]; genestein 200 μM, 5 minutes preincubation, FIG. 5B) does the source give for `O=c1c(-c2ccc(O)cc2)coc2cc(O)cc(O)c12` [Genestein, genestein] here?
Its value is “decreased SDF-1 platelet aggregation”.

With “SDF-1: chemokine stromal derived factor-1; α or β form not specified at the place” as the compound, how does the “increase in cytosolic calcium” value (human platelets [2]) read?
The value was “induced an increase in cytosolic calcium”.

And the “concentration giving maximal chemotaxis” value [3]?
Its value is 10 to 100 nM.

And the “induction of platelet aggregation” value (human platelets [4]; 40 nM chemokine, FIG. 1A)?
The value was “induced platelet aggregation”.

What about the “donors responding with only primary aggregation” value (human platelets [4]; out of twelve donors tested) of the same compound?
Its value is “two”.

And the “donors with full primary and secondary aggregation response” value (human platelets [4]; out of twelve donors tested)?
Its value is “ten”.

Which results are given for SDF-1α?
concentration at which a primary and secondary response was observed (human platelets [4]; FIGS. 1B and 1C): 12.5 to 25 nM; concentration that only induced the primary phase of aggregation (human platelets [4]; FIGS. 1B and 1C): 6.2 nM

For pertussis toxin, which “effect” value ([1]; pertussis toxin 1.7 nM, 30 minute preincubation, SDF-1α 80 ng/ml, FIG. 4B) is on record?
The value was “blocked”.
